Measurements as given in patent US20200291018A1, “TAM KINASE INHIBITORS” (SYROS PHARMACEUTICALS, INC., priority 2017, published 2020).

Key:
TYRO3 = target: T1, TYRO3 (Homo sapiens, UniProt Q06418); assay: TR-FRET kinase activity assay, TYRO3; format: biochemical; conditions: ATP at Km, 60 minutes
T1 sequence (Q06418 41-890): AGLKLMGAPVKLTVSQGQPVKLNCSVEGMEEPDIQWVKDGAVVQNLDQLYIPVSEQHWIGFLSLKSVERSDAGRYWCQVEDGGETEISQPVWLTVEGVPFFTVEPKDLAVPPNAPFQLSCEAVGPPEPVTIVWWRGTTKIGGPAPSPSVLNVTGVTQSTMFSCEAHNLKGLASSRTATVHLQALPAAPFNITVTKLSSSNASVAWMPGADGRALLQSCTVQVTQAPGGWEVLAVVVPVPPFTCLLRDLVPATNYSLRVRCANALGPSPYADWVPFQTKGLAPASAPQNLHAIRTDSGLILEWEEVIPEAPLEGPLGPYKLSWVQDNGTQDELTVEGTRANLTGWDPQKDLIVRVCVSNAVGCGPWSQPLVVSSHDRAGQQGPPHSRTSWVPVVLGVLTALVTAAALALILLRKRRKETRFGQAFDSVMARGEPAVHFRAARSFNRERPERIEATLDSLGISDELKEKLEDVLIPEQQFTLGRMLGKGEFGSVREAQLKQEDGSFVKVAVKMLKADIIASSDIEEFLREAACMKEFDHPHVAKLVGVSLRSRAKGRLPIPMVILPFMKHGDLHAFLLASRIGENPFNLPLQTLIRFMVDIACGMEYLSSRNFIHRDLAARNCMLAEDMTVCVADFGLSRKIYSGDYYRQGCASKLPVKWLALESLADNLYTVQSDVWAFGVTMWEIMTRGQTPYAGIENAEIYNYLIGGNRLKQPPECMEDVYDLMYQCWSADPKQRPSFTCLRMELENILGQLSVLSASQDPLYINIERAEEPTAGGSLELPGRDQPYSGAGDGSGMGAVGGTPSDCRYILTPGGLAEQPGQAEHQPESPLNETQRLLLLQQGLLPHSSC
Method in brief: (§1)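 Steps: compound, enzyme and labeled peptide combined at RT (50 mM HEPES pH 7.5, 10 mM MgCl2, 1 mM DTT); ATP added at Km; 60 min reaction; EDTA quench; Eu-antibody development 30 min in darkness; TR-FRET measured and IC50 fitted.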

MERTK = target: T2, MERTK (Homo sapiens, UniProt Q12866); assay: TR-FRET kinase activity assay, MERTK; format: biochemical; conditions: for IC50: TR-FRET activity assay, ATP at Km, 60 minutes, read-out: Mer IC50; for Mer/Flt3 ratio (FLT3 IC50/Mer IC50): ratio calculated as FLT3 IC50/Mer IC50
T2 sequence (Q12866 21-999): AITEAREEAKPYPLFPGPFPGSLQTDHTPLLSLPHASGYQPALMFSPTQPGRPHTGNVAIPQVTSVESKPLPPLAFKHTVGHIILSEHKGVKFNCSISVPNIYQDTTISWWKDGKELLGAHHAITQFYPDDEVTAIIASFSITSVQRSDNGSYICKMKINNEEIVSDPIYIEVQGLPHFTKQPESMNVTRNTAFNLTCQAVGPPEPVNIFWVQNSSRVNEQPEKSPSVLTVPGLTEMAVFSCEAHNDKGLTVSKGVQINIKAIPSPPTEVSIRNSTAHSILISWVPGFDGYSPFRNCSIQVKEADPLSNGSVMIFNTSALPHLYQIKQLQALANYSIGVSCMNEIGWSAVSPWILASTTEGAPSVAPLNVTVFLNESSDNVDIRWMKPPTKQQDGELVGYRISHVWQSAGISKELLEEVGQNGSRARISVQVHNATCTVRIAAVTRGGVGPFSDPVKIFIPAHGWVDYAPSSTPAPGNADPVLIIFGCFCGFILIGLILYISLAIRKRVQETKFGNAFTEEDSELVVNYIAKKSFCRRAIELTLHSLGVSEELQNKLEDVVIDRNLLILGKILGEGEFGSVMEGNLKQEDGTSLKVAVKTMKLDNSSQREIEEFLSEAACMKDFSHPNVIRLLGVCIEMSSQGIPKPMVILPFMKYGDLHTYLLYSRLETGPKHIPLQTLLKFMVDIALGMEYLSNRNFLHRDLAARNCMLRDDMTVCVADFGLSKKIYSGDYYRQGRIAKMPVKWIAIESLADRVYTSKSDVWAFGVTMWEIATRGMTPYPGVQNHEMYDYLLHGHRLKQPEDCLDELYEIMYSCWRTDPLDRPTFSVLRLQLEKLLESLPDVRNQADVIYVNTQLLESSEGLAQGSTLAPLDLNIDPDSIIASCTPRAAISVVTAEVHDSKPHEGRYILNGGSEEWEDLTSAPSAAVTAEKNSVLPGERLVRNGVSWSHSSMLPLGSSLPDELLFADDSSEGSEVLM
Method in brief: as §1

C[C@H](Nc1ncc2c(OC3CCOCC3)ncc([C@H]3CC[C@H](O)CC3)c2n1)C(F)F [Compound 365]
IC50 (TYRO3): ≤ 100 nM | IC50 (MERTK): ≤ 100 nM | Mer/Flt3 ratio (FLT3 IC50/Mer IC50) (MERTK): +++ (a ratio of >100)

COC[C@H](C)Nc1ncc2c(O[C@@H]3CCN(C)C3)ncc([C@H]3CC[C@H](O)CC3)c2n1 [Compound 366]
IC50 (TYRO3): 100 to 1000 nM | IC50 (MERTK): ≤ 100 nM | Mer/Flt3 ratio (FLT3 IC50/Mer IC50) (MERTK): +++ (a ratio of >100)

CC[C@@H](C)Nc1ncc2c(OC3CC(C)(C)N(C)C(C)(C)C3)ncc([C@H]3CC[C@H](O)CC3)c2n1 [Compound 367]
IC50 (TYRO3): ≤ 100 nM | IC50 (MERTK): ≤ 100 nM | Mer/Flt3 ratio (FLT3 IC50/Mer IC50) (MERTK): +++ (a ratio of >100)

COC[C@H](C)Nc1ncc2c(O[C@H]3CCN(C)C3)ncc([C@H]3CC[C@H](O)CC3)c2n1 [Compound 368]
IC50 (TYRO3): ≤ 100 nM | IC50 (MERTK): ≤ 100 nM | Mer/Flt3 ratio (FLT3 IC50/Mer IC50) (MERTK): +++ (a ratio of >100)

COCCN1CCC(Oc2ncc([C@H]3CC[C@H](O)CC3)c3nc(N[C@@H](C)CC(F)(F)F)ncc23)CC1 [Compound 369]
IC50 (TYRO3): ≤ 100 nM | IC50 (MERTK): ≤ 100 nM | Mer/Flt3 ratio (FLT3 IC50/Mer IC50) (MERTK): +++ (a ratio of >100)

C[C@@H](CC(F)(F)F)Nc1ncc2c(OC3C[C@H]4CC[C@@H](C3)N4C)ncc([C@H]3CC[C@H](O)CC3)c2n1 (stereo partly drawn) [Compound 370]
IC50 (TYRO3): ≤ 100 nM | IC50 (MERTK): ≤ 100 nM | Mer/Flt3 ratio (FLT3 IC50/Mer IC50) (MERTK): +++ (a ratio of >100)

COC[C@H](C)Nc1ncc2c(OC3C[C@@H](C)N(C)[C@@H](C)C3)ncc([C@H]3CC[C@H](O)CC3)c2n1 (stereo partly drawn) [Compound 371]
IC50 (TYRO3): ≤ 100 nM | IC50 (MERTK): ≤ 100 nM | Mer/Flt3 ratio (FLT3 IC50/Mer IC50) (MERTK): +++ (a ratio of >100)

COC[C@H](C)Nc1ncc2c(Nc3ccnc(C)c3)ncc([C@H]3CC[C@H](O)CC3)c2n1 [Compound 372]
IC50 (TYRO3): 100 to 1000 nM | IC50 (MERTK): ≤ 100 nM | Mer/Flt3 ratio (FLT3 IC50/Mer IC50) (MERTK): +++ (a ratio of >100)

C[C@@H](CC(F)(F)F)Nc1ncc2c(OC3CCN(c4ncccn4)CC3)ncc([C@H]3CC[C@H](O)CC3)c2n1 [Compound 373]
IC50 (TYRO3): ≤ 100 nM | IC50 (MERTK): ≤ 100 nM | Mer/Flt3 ratio (FLT3 IC50/Mer IC50) (MERTK): +++ (a ratio of >100)

COC[C@H](C)Nc1ncc2c(Nc3ccc(C)nc3)ncc([C@H]3CC[C@H](O)CC3)c2n1 [Compound 374]
IC50 (TYRO3): ≤ 100 nM | IC50 (MERTK): ≤ 100 nM | Mer/Flt3 ratio (FLT3 IC50/Mer IC50) (MERTK): +++ (a ratio of >100)

Cc1nccc(N2CCC(Oc3ncc([C@H]4CC[C@H](O)CC4)c4nc(N[C@@H](C)CC(F)(F)F)ncc34)CC2)n1 [Compound 375]
IC50 (TYRO3): ≤ 100 nM | IC50 (MERTK): ≤ 100 nM | Mer/Flt3 ratio (FLT3 IC50/Mer IC50) (MERTK): +++ (a ratio of >100)

COCCN1C(C)(C)CC(Oc2ncc([C@H]3CC[C@H](O)CC3)c3nc(N[C@@H](C)CC#N)ncc23)CC1(C)C [Compound 376]
IC50 (TYRO3): ≤ 100 nM | IC50 (MERTK): ≤ 100 nM | Mer/Flt3 ratio (FLT3 IC50/Mer IC50) (MERTK): +++ (a ratio of >100)

COCC(=O)N1C(C)(C)CC(Oc2ncc([C@H]3CC[C@H](O)CC3)c3nc(N[C@@H](C)CC(F)(F)F)ncc23)CC1(C)C [Compound 377]
IC50 (TYRO3): 100 to 1000 nM | IC50 (MERTK): ≤ 100 nM | Mer/Flt3 ratio (FLT3 IC50/Mer IC50) (MERTK): +++ (a ratio of >100)

C[C@@H](CC(F)(F)F)Nc1ncc2c(OC3CCN([C@@H]4CCOC4)CC3)ncc([C@H]3CC[C@H](O)CC3)c2n1 [Compound 378]
IC50 (TYRO3): ≤ 100 nM | IC50 (MERTK): ≤ 100 nM | Mer/Flt3 ratio (FLT3 IC50/Mer IC50) (MERTK): +++ (a ratio of >100)

COCCN1C(C)(C)CC(Oc2ncc([C@H]3CC[C@H](O)CC3)c3nc(NC4(C)CC4)ncc23)CC1(C)C [Compound 379]
IC50 (TYRO3): ≤ 100 nM | IC50 (MERTK): ≤ 100 nM | Mer/Flt3 ratio (FLT3 IC50/Mer IC50) (MERTK): +++ (a ratio of >100)
